# According to US11219664B2, “Composition for diagnosing, preventing, or treating vascular smooth muscle cell proliferative diseases using FGF12” (CHUNG-ANG UNIVERSITY INDUSTRY ACADEMIC COOPERATION …, priority 2015, dated 2022):
# B1: BMP-7: bone morphogenetic protein, promotes differentiation and inhibits proliferation of vascular smooth muscle cells (protein, UniProt P18075 293-431, looked up)
# Bone morphogenetic protein 7: STGSKQRSQNRSKTPKNQEALRMANVAENSSSDQRQACKKHELYVSFRDLGWQDWIIAPEGYAAYYCEGECAFPLNSYMNATNHAIVQTLVHFINPETVPKPCCAPTQLNAISVLYFDDSSNVILKKYRNMVVRACGCH
# B2: BMP-4: Bone morphogenic protein-4 (protein)
# chain: SPKHHSQRARKKNKNCRRHSLYVDFSDVGWNDWIVAPPGYQAFYCHGDCPFPLADHLNSTNHAIVQTLVNSVNSSIPKACCVPTELSAISMLYLDEYDKVVLKNYQEMVVEGCGCR
# Columns and labels:
# [1] = test system: HPASMCs; assay: Cell proliferation by Ki67 staining in HPASMCs; format: cell-based, human; conditions: pifithrin 10 μM
# Text: (§1) Tissue sections and cells were stained with primary antibody against Ki67 (Dako Inc.), FGF12 (Abcam), phospho-p53 (p-p53; Cell Signaling Technology), α-smooth muscle actin (α-SMA; Sigma), or SM22α (Abcam) and proper fluorescence-labeled secondary antibody. Nuclei were stained with 4′,6-diamidino-2-phenylindole (DAPI). The stained cells were observed using a fluorescence microscope (Nikon). All images shown are representative of independent three experiments.
# (§2) For cell proliferation analysis, cells were inoculated triplicate in a 24-well plate, and cultured in the basal medium supplemented with 50 ng/ml platelet-derived growth factor-BB (PDGF-BB; R&D systems), 100 ng/ml Bone morphogenic protein-4 (BMP-4; R&D systems), or 10% FBS. Cell proliferation was determined by an MTS assay (MTS assay; Promega) or immunofluorescence assay using anti-Ki67 IgG (Dako). Five representative color images were randomly acquired from each sample for quantifying Ki67 stained cells (Ki67+ cells), and the percentage of Ki67+ cells was determined through dividing the mean value of Ki67+ cells by the total number of cells on each image.
# [2] = test system: HASMCs; assay: Cell proliferation by Ki67 staining in HASMCs; format: cell-based, human; conditions: pifithrin 10 μM
# Text: as §1, §2
# [3] = test system: human pulmonary aortic vascular smooth muscle cells (HPASMCs); assay: FGF12 expression regulation by PDGF-BB in HPASMCs (RT-PCR, immunofluorescence); format: cell-based
# Text: as §1
# (§3) Total RNA of cells or tissues for reverse transcription-polymerase chain reaction (RT-PCR) was isolated with TRIzol reagent (Invitrogen). Next, cDNA was synthesized from total RNA using primers specific to corresponding genes and a Superscript first-strand synthesis kit (Invitrogen), and was amplified by PCR (30-35 cycles). Glyceraldehyde-3-phosphate dehydrogenase (GAPDH) was used as a loading control. Real-time PCR was performed using a SYBR-Green PCR master mix (Applied biosystems) and the StepOnePlus™ Real Time PCR System (Applied Biosystems). Data were analyzed according to ΔΔCt method, and gene expression values were normalized to GAPDH expression.
# (§4) Human aortic vascular smooth muscle cells (HASMCs; ScienCell Research Laboratories) and human pulmonary […] vascular smooth muscle cell (HPASMC, ScienCell Research laboratories) were cultured in smooth muscle growth medium (SMGM, ScienCell Research Laboratories) or basal medium. For a compound inhibitor experiment, HASMCs and HPASMCs were pre-treated with pifithrin (10 μM; Sigma), LY294002 (20 μM; Cell Signaling Technology), PD98059 (50 μM; Cell Signaling Technology), U0 126 (10 μM; Cell Signaling Technology), SB203580 (50 μM; Cell Signaling Technology), and BIRB796 (10 μM; Merck) at 37° C. for 24 hours.
# [4] = test system: FGF12 promoter; assay: Luciferase reporter assay with FGF12 promoter; format: cell-based, human; conditions: HASMCs, pGL3-FGF12 reporter, PDGF-BB 50 ng/ml versus removed
# Description: For the luciferase reporter assay, approximately 2000 base pairs of the FGF12 5′-UTR were cloned into a firefly luciferase reporter vector (pGL3-phFGF12). HASMCs were co-transfected with an empty vector (pGL3-basic) or pGL3-phFGF12, together with a constitutively active β-galactosidase reporter plasmid as a transfection control. After 48 hours, luciferase and galactosidase activities were analyzed using a luciferase and galactosidase assay kit (Stratagene). The luciferase activity was normalized to galactosidase activity, and expressed as a relative value compared with the luciferase activity measured in HASMCs transfected with pGL3-basic and cultured in a medium containing PDGF-BB (50 ng/ml) for 1 day.
# [5] = test system: human aortic smooth muscle cells (HASMCs); assay: FGF12 expression regulation by PDGF-BB in HASMCs (RT-PCR, immunofluorescence); format: cell-based
# Text: as §1, §3, §4
# [6] = test system: HPASMC; assay: FGF12 expression regulation by BMP in HPASMC (RT-PCR, Western blotting); format: cell-based, human; conditions: for FGF12 protein expression / protein expression of vascular smooth muscle cell differentiation markers (α-SMA, SM22α): 30 ng/ml, 48 hours, western blotting; for level of FGF12 mRNA: 48 hours after addition to basal medium (10 and 30 ng/ml), RT-PCR
# Description: as §3
# For transfection for FGF12 overexpression, an expression vector (pCMV6-Entry having the c-terminal labeled Myc-DDK) encoding a rat homologous gene (Origene) having 100% amino acid homology with human FGF12 cDNA was used. HASMCs and HPASMCs were transfected with pCMV6-FGF12(pFGF12) or pCMV6-Entry (pEntry) control vector using Lipofectamien™ 2000 according to the protocol of the manufacturer, and selected using G418 (Sigma) for 2 weeks. For the inhibition of FGF12, p53 or BMPR2 expression, subconfluent HASMCs were transfected with specific or non-specific small interfering RNA (siRNA; GE Healthcare) using Lipofectamien™ 2000.
# Cell and tissue lysates were separated by SDS-PAGE, and protein bands were transferred on blots. Blots were reacted with appropriate primary antibodies such as FGF12 (Abcam), p-p53 (Cell Signaling Technology), p53 (BD Biosciences), α-SMA (Sigma), SM22α (Abcam), SM-MHC, or β-actin (Santa Cruz biotechnology), followed by treatment with horseradish peroxidase-conjugated secondary antibodies.
# [7] = 3 hours after PDGF-BB (50 ng/ml) added to basal medium, RT-PCR
# [8] = after 24 hours of PDGF-BB stimulation
molecule,measurement,setting,value
pifithrin,cell proliferation of Ad-FGF12-transfected cells,[1],significantly improving the cell proliferation
same,cell proliferation of Ad-FGF12-transfected cells,[2],significantly improving the cell proliferation
"PDGF-BB: platelet-derived growth factor subunit B homodimer, vascular smooth muscle cell mitogen",mRNA level of FGF12,[3]; [7],greatly decreased
same,expression level of FGF12 (immunofluorescent experiment),"[3]; PDGF-BB 50 ng/ml, one day",decreased
same,mRNA level of FGF12,[3]; [8],further decreased
same,mRNA level of the contractible gene SM-HMC,[3]; [8],decreased
same,transcriptional activity of the FGF12 promoter,[4],inhibits the expression of FGF12 at a transcriptional level
same,mRNA level of FGF12,[5]; [7],greatly decreased
same,expression level of FGF12 (immunofluorescent experiment),"[5]; PDGF-BB 50 ng/ml, one day",decreased
same,mRNA level of FGF12,[5]; [8],further decreased
same,mRNA level of the contractible gene SM-HMC,[5]; [8],decreased
same,mRNA level of the proliferation marker gene CDK1,[5]; [8],increased
B1,FGF12 protein expression,[6],increased
same,"protein expression of vascular smooth muscle cell differentiation markers (α-SMA, SM22α)",[6],increased
same,level of FGF12 mRNA,[6],significantly increased
B2,FGF12 protein expression,[6],increased
same,"protein expression of vascular smooth muscle cell differentiation markers (α-SMA, SM22α)",[6],increased
same,level of FGF12 mRNA,[6],significantly increased
